Measurements from patent US12343326B2, “Psychoactive medicines and their use for treating psychiatric and neurological conditions and disorders” (Transcend Therapeutics, Inc., priority 2021, dated 2025).

Legend:
Assay in all cases: β-arrestin based GPCR screen (PathHunter / GPCRmax), agonist mode
Type in all cases: cell-based
Parameters in all cases: host or cells: PathHunter cell lines
168 GPCRs [1] = biological target: 168 GPCRs (Homo sapiens, UniProt P30556); conditions: AGTR1, Agonist
Experimental: (§1) For agonist determination, cells were incubated with sample to induce response. […] Vehicle concentration was 1%.

168 GPCRs [2] = biological target: 168 GPCRs (Homo sapiens, UniProt P47872); conditions: SCTR
Experimental: as §1

168 GPCRs [3] = biological target: 168 GPCRs (Homo sapiens, UniProt P25090)
Experimental: as §1

168 GPCRs [4] = biological target: 168 GPCRs (Homo sapiens, UniProt P41146)
Experimental: as §1

168 GPCRs [5] = biological target: 168 GPCRs (Homo sapiens, UniProt P25105); conditions: PTAFR
Experimental: as §1

168 GPCRs [6] = biological target: 168 GPCRs (Homo sapiens, UniProt P30872)
Experimental: as §1

168 GPCRs [7] = biological target: 168 GPCRs (Homo sapiens, UniProt P41587)
Experimental: as §1

168 GPCRs [8] = biological target: 168 GPCRs (Homo sapiens, UniProt P18089); conditions: ADRA2B, Agonist
Experimental: as §1

168 GPCRs [9] = biological target: T1, 168 GPCRs (Homo sapiens, UniProt Q9Y5Y4)
T1 sequence (Q9Y5Y4 1-395): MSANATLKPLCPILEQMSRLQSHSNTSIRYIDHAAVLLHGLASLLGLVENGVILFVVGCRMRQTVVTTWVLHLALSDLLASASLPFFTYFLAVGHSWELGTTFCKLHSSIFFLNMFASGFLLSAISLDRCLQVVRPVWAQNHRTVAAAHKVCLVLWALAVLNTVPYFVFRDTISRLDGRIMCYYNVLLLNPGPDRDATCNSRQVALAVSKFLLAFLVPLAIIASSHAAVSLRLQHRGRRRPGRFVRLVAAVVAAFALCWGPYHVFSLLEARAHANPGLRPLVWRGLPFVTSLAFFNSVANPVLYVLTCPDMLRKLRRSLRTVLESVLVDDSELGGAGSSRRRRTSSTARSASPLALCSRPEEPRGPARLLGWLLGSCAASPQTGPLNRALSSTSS
Experimental: as §1

168 GPCRs [10] = biological target: 168 GPCRs (Homo sapiens, UniProt P35462)
Experimental: as §1

168 GPCRs [11] = biological target: T2, 168 GPCRs (Homo sapiens, UniProt P32248); conditions: CCR7, Agonist
T2 sequence (P32248 25-378): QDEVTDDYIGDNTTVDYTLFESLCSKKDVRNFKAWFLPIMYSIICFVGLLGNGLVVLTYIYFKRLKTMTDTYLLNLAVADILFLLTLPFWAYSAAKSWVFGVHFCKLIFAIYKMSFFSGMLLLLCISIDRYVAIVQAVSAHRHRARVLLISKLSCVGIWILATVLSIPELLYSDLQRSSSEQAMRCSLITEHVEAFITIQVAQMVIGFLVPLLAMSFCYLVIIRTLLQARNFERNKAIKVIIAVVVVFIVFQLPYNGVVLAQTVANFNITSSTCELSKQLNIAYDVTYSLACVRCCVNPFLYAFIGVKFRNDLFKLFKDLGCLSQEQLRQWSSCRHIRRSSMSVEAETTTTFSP
Experimental: as §1

168 GPCRs [12] = biological target: 168 GPCRs (Homo sapiens, UniProt P51686); conditions: CCR9, Agonist
Experimental: as §1

168 GPCRs [13] = biological target: 168 GPCRs (Homo sapiens, UniProt P21731); conditions: TBXA2R
Experimental: as §1

168 GPCRs [14] = biological target: 168 GPCRs (Homo sapiens, UniProt P46663); conditions: BDKRB1, Agonist
Experimental: as §1

168 GPCRs [15] = biological target: 168 GPCRs (Homo sapiens, UniProt P28336); conditions: NMBR
Experimental: as §1

168 GPCRs [16] = biological target: 168 GPCRs (Homo sapiens, UniProt P30559); conditions: OXTR
Experimental: as §1

168 GPCRs [17] = biological target: 168 GPCRs (Homo sapiens, UniProt P41143)
Experimental: as §1

168 GPCRs [18] = biological target: 168 GPCRs (Homo sapiens, UniProt P08172); conditions: CHRM2, Agonist
Experimental: as §1

Sequence of 168 GPCRs (Homo sapiens, UniProt P41143) (P41143 whole entry): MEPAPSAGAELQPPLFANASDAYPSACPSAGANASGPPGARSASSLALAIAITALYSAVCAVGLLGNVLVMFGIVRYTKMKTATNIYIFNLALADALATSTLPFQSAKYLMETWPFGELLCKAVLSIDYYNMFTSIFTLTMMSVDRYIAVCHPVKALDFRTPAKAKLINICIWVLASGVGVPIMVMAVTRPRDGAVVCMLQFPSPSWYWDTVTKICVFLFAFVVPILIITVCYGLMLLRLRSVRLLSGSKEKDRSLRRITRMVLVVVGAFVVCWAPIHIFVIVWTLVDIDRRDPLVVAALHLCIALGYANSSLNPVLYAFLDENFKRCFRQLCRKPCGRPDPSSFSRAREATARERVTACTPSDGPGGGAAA
Sequence of 168 GPCRs (Homo sapiens, UniProt P46663) (P46663 whole entry): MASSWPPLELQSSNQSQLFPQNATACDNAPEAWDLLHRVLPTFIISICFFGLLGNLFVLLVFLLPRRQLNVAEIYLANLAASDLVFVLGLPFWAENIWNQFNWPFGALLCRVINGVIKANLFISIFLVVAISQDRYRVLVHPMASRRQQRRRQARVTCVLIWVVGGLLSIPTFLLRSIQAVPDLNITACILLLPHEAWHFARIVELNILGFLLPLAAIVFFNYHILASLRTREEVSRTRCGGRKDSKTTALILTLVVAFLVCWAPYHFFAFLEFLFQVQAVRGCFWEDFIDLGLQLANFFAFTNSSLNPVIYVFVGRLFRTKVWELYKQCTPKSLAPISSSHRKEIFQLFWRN
Sequence of 168 GPCRs (Homo sapiens, UniProt P30872) (P30872 whole entry): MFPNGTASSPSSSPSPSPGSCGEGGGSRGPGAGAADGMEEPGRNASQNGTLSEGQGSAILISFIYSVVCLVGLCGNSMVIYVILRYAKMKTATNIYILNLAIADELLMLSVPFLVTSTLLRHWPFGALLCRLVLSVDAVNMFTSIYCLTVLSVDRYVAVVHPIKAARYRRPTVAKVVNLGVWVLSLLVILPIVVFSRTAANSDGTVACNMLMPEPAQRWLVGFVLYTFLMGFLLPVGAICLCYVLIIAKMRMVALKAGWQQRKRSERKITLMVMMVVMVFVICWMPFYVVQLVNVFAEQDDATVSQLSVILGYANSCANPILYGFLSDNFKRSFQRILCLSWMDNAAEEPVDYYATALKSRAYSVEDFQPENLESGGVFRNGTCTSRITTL
Sequence of 168 GPCRs (Homo sapiens, UniProt P21731) (P21731 whole entry): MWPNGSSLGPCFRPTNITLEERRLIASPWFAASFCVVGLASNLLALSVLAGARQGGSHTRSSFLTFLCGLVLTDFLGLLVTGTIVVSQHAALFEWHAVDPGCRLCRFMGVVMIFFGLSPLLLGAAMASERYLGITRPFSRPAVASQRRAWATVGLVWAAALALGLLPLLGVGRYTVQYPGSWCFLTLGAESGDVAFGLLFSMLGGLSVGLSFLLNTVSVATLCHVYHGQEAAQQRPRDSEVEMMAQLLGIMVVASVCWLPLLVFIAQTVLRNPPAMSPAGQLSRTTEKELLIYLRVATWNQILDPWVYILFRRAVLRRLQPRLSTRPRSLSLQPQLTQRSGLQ
Sequence of 168 GPCRs (Homo sapiens, UniProt P25090) (P25090 whole entry): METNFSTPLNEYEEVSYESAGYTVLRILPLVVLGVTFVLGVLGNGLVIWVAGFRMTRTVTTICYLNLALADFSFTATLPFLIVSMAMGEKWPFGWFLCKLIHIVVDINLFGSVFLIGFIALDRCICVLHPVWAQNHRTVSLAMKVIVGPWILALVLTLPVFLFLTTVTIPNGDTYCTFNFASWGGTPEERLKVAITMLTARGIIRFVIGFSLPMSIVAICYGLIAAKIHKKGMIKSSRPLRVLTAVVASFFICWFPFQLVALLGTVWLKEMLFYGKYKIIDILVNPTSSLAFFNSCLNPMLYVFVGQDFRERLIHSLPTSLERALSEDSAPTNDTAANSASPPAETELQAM
Sequence of 168 GPCRs (Homo sapiens, UniProt P35462) (P35462 whole entry): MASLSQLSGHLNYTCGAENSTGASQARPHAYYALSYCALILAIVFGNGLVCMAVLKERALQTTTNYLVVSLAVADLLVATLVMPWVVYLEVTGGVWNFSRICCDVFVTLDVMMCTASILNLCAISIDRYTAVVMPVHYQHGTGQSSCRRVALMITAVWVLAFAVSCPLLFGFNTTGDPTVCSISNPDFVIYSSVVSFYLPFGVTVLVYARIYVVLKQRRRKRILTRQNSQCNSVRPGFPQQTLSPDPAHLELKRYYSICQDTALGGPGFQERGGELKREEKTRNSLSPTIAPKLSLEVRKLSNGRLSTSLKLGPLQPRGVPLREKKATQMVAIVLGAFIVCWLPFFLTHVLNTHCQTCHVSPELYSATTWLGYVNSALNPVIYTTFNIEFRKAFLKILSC
Sequence of 168 GPCRs (Homo sapiens, UniProt P41587) (P41587 24-438): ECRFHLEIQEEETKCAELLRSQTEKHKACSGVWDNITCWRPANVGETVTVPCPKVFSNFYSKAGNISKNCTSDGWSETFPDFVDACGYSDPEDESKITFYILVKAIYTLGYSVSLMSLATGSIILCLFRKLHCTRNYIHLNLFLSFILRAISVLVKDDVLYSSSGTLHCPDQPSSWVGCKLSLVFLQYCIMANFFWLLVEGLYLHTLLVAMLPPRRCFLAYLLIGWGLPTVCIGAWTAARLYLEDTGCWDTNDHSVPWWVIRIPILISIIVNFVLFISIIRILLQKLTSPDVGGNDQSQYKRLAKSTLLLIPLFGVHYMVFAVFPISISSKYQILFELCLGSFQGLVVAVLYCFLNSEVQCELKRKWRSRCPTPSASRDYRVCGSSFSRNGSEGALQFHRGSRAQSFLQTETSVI
Sequence of 168 GPCRs (Homo sapiens, UniProt P51686) (P51686 whole entry): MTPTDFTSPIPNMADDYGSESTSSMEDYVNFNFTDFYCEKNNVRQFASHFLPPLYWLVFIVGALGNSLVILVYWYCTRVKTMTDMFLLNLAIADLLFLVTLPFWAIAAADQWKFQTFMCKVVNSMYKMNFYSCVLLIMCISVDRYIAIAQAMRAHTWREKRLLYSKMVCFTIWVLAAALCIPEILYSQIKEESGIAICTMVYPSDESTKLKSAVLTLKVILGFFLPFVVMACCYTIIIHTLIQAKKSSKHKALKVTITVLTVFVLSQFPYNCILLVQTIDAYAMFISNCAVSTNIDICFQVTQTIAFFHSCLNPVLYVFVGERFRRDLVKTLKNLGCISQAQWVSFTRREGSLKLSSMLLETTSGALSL
Sequence of 168 GPCRs (Homo sapiens, UniProt P08172) (P08172 whole entry): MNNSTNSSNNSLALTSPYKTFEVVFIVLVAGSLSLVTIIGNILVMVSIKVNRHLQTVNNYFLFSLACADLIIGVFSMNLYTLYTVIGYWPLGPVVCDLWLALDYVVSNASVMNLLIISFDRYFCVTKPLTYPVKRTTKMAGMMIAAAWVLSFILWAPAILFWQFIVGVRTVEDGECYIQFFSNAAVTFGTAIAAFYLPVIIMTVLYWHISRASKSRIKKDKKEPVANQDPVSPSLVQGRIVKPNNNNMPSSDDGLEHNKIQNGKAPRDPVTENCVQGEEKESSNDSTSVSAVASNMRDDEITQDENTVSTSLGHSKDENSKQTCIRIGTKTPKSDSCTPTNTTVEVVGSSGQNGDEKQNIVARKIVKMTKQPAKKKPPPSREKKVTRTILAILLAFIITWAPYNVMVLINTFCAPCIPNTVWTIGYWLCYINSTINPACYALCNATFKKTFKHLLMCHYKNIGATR
Sequence of 168 GPCRs (Homo sapiens, UniProt P30559) (P30559 whole entry): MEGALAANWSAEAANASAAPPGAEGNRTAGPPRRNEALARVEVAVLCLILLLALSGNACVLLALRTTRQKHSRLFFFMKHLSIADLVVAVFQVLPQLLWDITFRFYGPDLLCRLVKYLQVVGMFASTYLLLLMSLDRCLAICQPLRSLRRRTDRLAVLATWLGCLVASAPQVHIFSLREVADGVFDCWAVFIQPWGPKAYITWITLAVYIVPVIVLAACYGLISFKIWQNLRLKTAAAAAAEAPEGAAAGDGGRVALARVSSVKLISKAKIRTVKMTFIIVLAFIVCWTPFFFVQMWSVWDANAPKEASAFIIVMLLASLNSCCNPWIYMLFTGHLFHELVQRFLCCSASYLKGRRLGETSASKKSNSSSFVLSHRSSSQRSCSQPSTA
Sequence of 168 GPCRs (Homo sapiens, UniProt P25105) (P25105 whole entry): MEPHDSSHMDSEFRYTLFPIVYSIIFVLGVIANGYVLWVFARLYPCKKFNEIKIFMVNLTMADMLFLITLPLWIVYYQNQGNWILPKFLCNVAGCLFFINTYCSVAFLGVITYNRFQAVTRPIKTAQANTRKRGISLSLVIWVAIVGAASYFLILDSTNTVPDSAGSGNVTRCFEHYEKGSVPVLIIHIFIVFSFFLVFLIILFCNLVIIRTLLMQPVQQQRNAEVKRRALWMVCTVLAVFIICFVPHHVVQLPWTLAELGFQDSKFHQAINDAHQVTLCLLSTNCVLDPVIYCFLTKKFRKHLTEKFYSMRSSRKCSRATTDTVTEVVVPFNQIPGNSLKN
Sequence of 168 GPCRs (Homo sapiens, UniProt P47872) (P47872 23-440): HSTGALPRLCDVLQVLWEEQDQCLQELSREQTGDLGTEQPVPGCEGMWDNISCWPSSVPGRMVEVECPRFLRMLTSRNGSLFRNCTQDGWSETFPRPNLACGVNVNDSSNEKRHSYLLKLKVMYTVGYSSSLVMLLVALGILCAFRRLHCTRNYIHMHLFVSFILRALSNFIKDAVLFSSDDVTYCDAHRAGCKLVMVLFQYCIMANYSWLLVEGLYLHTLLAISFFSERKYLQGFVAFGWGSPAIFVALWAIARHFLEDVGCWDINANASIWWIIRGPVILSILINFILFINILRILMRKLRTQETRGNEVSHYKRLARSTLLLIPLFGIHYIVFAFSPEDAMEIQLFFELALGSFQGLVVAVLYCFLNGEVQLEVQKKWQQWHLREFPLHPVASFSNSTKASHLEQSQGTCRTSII

## CNC(C)C(=O)c1ccc2c(c1)OCO2 (stereo not drawn) [methylone, 3,4-methylenedioxy-N-methylcathinone]
168 GPCRs [1]; 1 uM
  activity at 1 µM: -2.8%
168 GPCRs [1]; 10 uM
  activity at 10 µM: -1%
168 GPCRs [2]; Agonist mode, 10 uM
  activity at 10 µM: -1.4%
168 GPCRs [2]; Agonist, 1 uM
  activity at 1 µM: -2.6%
168 GPCRs [3]; FPRL1, Agonist mode, 10 uM
  activity at 10 µM: 0.1%
168 GPCRs [3]; FPRL1, Agonist, 1 uM
  activity at 1 µM: -0.5%
168 GPCRs [4]; OPRL1, Agonist mode, 10 uM
  activity at 10 µM: -2.3%
168 GPCRs [4]; OPRL1, Agonist, 1 uM
  activity at 1 µM: -1.6%
168 GPCRs [5]; Agonist mode, 10 uM
  activity at 10 µM: -2.6%
168 GPCRs [5]; Agonist, 1 uM
  activity at 1 µM: -1.3%
168 GPCRs [6]; SSTR1, Agonist mode, 10 uM
  activity at 10 µM: -7.4%
168 GPCRs [6]; SSTR1, Agonist, 1 uM
  activity at 1 µM: -5.3%
168 GPCRs [7]; VIPR2, Agonist mode, 10 uM
  activity at 10 µM: -0.3%
168 GPCRs [7]; VIPR2, Agonist, 1 uM
  activity at 1 µM: -0.4%
168 GPCRs [8]; 1 uM
  activity at 1 µM: -1%
168 GPCRs [8]; 10 uM
  activity at 10 µM: 1.3%
168 GPCRs [9]; CRTH2, Agonist mode, 10 uM
  activity at 10 µM: -5%
168 GPCRs [9]; CRTH2, Agonist, 1 uM
  activity at 1 µM: -5.7%
168 GPCRs [10]; DRD3, Agonist mode, 10 uM
  activity at 10 µM: 2.3%
168 GPCRs [10]; DRD3, Agonist, 1 uM
  activity at 1 µM: 2.2%
168 GPCRs [11]; 1 uM
  activity at 1 µM: -3.4%
168 GPCRs [11]; 10 uM
  activity at 10 µM: -3.7%
168 GPCRs [12]; 1 uM
  activity at 1 µM: -0.5%
168 GPCRs [12]; 10 uM
  activity at 10 µM: 0.2%
168 GPCRs [13]; Agonist mode, 10 uM
  activity at 10 µM: -2.95%
168 GPCRs [13]; Agonist, 1 uM
  activity at 1 µM: -1.1%
168 GPCRs [14]; 1 uM
  activity at 1 µM: -1.7%
168 GPCRs [14]; 10 uM
  activity at 10 µM: -2.5%
168 GPCRs [15]; Agonist mode, 10 uM
  activity at 10 µM: 1.2%
168 GPCRs [15]; Agonist, 1 uM
  activity at 1 µM: 1.1%
168 GPCRs [16]; Agonist mode, 10 uM
  activity at 10 µM: -0.5%
168 GPCRs [16]; Agonist, 1 uM
  activity at 1 µM: -0.6%
168 GPCRs [17]; OPRD1, Agonist mode, 10 uM
  activity at 10 µM: -1.5%
168 GPCRs [17]; OPRD1, Agonist, 1 uM
  activity at 1 µM: -2%
168 GPCRs [18]; 1 uM
  activity at 1 µM: -0.2%
168 GPCRs [18]; 10 uM
  activity at 10 µM: 0.2%
